Measurements: ChEMBL document CHEMBL1125053, “Dihydropyrimidine calcium channel blockers. 2. 3-substituted-4-aryl-1,4-dihydro-6-methyl-5-pyrimidinecarboxylic acid esters as potent mimics of dihydropyridines” (J Med Chem, 1990)

Biological target: Voltage-gated L-type calcium channel (Homo sapiens, UniProt Q13936+Q13698+Q01668+O60840)
Assay: In vitro vasorelaxant activity (calcium channel blocking activity) was determined with potassium-depolarized rabbit thoracic aorta
Type: functional, tissue-based

Compound	IC50 [µM]
CCCN1C(S)=NC(C)=C(C(=O)OCC)C1c1cccc([N+](=O)[O-])c1 (centres undefined)	0.05
CCOC(=O)C1=C(C)NC(OCC)=C(C(=O)OCC)C1c1cccc([N+](=O)[O-])c1 (centres undefined)	0.026
CCOC(=O)C1=C(C)NC(SCC)=C(C(=O)OCC)C1c1cccc([N+](=O)[O-])c1 (centres undefined)	0.004
CCOC(=O)C1=C(C)NC(SC)=NC1c1cccc([N+](=O)[O-])c1 (centres undefined)	0.13
CCOC(=O)C1=C(C)N=C(OC)NC1c1cccc([N+](=O)[O-])c1 (centres undefined)	0.71

Continued, values first:

IC50 [µM]	Compound
0.002	CCOC(=O)N1C(=S)N=C(C)/C(=C(/O)OC(C)C)[C@H]1c1cccc([N+](=O)[O-])c1
0.017	CCOC(=O)N1C(=S)N=C(C)/C(=C(/O)OCC)C1c1cccc([N+](=O)[O-])c1 (centres undefined)
0.026	CCOC(=O)N1C(=S)N=C(C)/C(=C(/O)OCC)C1c1ccccc1C(F)(F)F (centres undefined)
0.27	CCO/C(O)=C1\C(C)=NC(=S)N(C(=O)N(C)C)C1c1cccc([N+](=O)[O-])c1 (centres undefined)
